The text below walks through data of article PMC4767496 (Oncotarget, 2015).

For one data set, the system named is solid-tumor patients. The note with it: phase 1 studies; cited from earlier work.
Data set [1] in a line: Plasma pharmacokinetics of lenvatinib. The settings on record: human, in vivo. As to the method: Tmax, Cmax, Ctrough, AUC0-t, CL (total body clearance from plasma), Vss (volume of distribution at steady […]), and t1/2 were evaluated.
Baseline and demographic variables including age, gender, race, height, weight, and ECOG performance score were summarized using descriptive statistics. […] Pearson and Spearman correlation coefficients were calculated between pharmacokinetic parameters and serum biomarkers at different time points compared with baseline to examine the correlation between drug exposure and biomarkers. Univariate and multivariate Cox proportional hazards models and log-rank tests were used to examine the relationship between PFS and baseline (and change from baseline) concentrations in angiogenesis and apoptosis biomarkers. Cumulative chi-square test was used to examine the correlation between mutation/serum biomarkers and best overall response. Pearson and Spearman correlation coefficients were also calculated between percent MTS (defined as percent change in sum of longest diameter from baseline to nadir using RECIST criteria) and serum biomarkers at different time points compared with baseline.

The subject of the next data set is metastatic melanoma. The note with it: 38 or 120 patients, phase 3 trial, metastatic melanoma progressed after ipilimumab; cited from earlier work.

By AUC(0-t) is commonly meant exposure summed from dosing to a finite time, without extrapolation to infinity. As a reminder, the Tmax is the time from dosing to the highest level. Regarding `COc1cc2nccc(Oc3ccc(NC(=O)NC4CC4)c(Cl)c3)c2cc1C(N)=O` [Lenvatinib], the “Maximum tolerated dose (MTD)” value in the data set on solid-tumor patients was 25 mg/day. Moreover, the area under the curve AUC(0-t) in data set [1] (Geometric mean (%CV), DL1 lenvatinib 20 mg + TMZ 100 mg/m2, Cycle 1/Day 1, n = 6) was found to be 3120 ng·h/mL; in data set [1] (Geometric mean (%CV), DL1 lenvatinib 20 mg + TMZ 100 mg/m2, Cycle 2/Day 1, n = 4), 4120 ng·h/mL; in data set [1] (Mean (SD), DL3 lenvatinib 24 mg + TMZ 150 mg/m2, Cycle 1/Day 1, n = 22), 3940 ng·h/mL; in data set [1] (Mean (SD), DL3 lenvatinib 24 mg + TMZ 150 mg/m2, Cycle 2/Day 1, n = 18) it was 4740 ng·h/mL. In addition, the time to peak (Tmax) in data set [1] (Median tmax, range across the cohorts) lay within 1 to 8 h.

Consider “nivolumab: anti-PD1 receptor immune checkpoint inhibitor monoclonal antibody”, for which the Objective response rate in the data set with metastatic melanoma is reported as 31.7%.
